Like-named read-outs stand apart in the source and are kept apart here.
Legend:
Ba/F3-BCR-ABL1-WT cells = experiment: Ba/F3-BCR-ABL1-WT cellular proliferation assay; assay type: cell-based, murine; conditions: Mus musculus, read-out: Ba/F3-BCR-ABL1-WT IC50
ABL1 (64-515) [1] = molecular target: T1, ABL1 (64-515) (Homo sapiens (Human), UniProt P00519); experiment: Caliper ABL1 (64-515) assay (microfluidic mobility shift); assay type: biochemical
ABL1 (64-515) [2] = molecular target: T1, ABL1 (64-515); experiment: Radio ABL1 (64-515) assay (radiometric filter-binding); assay type: biochemical
[3] = Compound concentration in mouse brain and plasma; assay type: in vivo; conditions: 5 minutes after a single intravenous injection of 1 mg/kg in mice; for Kp at 5 min / concentration at 5 min: mouse; for Kp at 5 min: brain/plasma, read-out: Mean Ratio (brain/plasma); for concentration at 5 min: plasma, read-out: Mean blood (drug concentration in plasma)

T1 sequence (P00519 64-515): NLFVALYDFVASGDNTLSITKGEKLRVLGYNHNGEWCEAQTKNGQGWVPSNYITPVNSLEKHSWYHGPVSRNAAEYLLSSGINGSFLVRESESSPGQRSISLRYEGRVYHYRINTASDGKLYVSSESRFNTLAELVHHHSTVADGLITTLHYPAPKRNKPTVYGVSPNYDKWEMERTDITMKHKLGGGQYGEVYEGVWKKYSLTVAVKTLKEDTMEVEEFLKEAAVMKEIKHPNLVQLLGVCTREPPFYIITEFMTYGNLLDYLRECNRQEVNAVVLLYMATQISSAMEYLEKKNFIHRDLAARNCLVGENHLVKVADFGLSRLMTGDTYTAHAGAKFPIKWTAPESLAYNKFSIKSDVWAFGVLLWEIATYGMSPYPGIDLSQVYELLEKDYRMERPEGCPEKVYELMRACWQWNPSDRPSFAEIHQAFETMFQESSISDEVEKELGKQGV

Row | IC50 (ABL1 (64-515) [1]) [nM] | IC50 (ABL1 (64-515) [2]) [nM] | Compound | IC50 (Ba/F3-BCR-ABL1-WT cells; 48 hours) [nM] | further results
1 |  |  | O=C(Nc1ccc(CC(F)(F)F)cc1)c1cccc(-c2cncnc2)c1 [Example 12, 3-(Pyrimidin-5-yl)-N-(4-(2,2,2-trifluoroethyl)phenyl)benzamide] | 148 | 
2 | 55 |  | O=C(Nc1ccc(OC(F)(F)F)cc1)c1cnc(Cl)c(-c2ccn[nH]2)c1 [Example 80, 6-Chloro-5-(1H-pyrazol-5-yl)-N-(4-(trifluoromethoxy)phenyl)nicotinamide] |  | 
3 | 51 | 63 | COCCOc1ncc(C(=O)Nc2ccc(OC(F)(F)F)cc2)cc1-c1cncnc1 [Example 51, 6-(2-Methoxyethoxy)-5-(pyrimidin-5-yl)-N-(4-(trifluoromethoxy)phenyl)nicotinamide] |  | 
4 |  |  | O=C(Nc1ccc(OC(F)(F)F)cc1)c1cccc(-c2cncnc2)c1 [Example 1, 3-(Pyrimidin-5-yl)-N-(4-(trifluoromethoxy)phenyl)benzamide] |  | IC50 (Ba/F3-BCR-ABL1-WT cells; 48 h): 150 nM; Mean brain (drug concentration in brain) [3]: 4946 pmol/g; concentration at 5 min [3]: 1160 nM
5 | 6.6 |  | N#CC1(c2ncc(C(=O)Nc3ccc(OC(F)(F)F)cc3)cc2-c2cncnc2)CCOCC1 [Example 46, 6-(4-Cyanotetrahydro-2h-pyran-4-yl)-5-(pyrimidin-5-yl)-N-(4-(trifluoromethoxy)phenyl)nicotinamide] |  | 
6 | 93 | 20 | O=C(Nc1ccc(OC(F)(F)F)cc1)c1cc(-c2cncnc2)ccc1F [Example 59, 2-Fluoro-5-(pyrimidin-5-yl)-N-(4-(trifluoromethoxy)phenyl)benzamide] |  | 
7 |  |  | O=C(Nc1ccc(OC(F)(F)F)cc1)c1cncc(-c2cncnc2)c1 [Example 42, 5-(Pyrimidin-5-yl)-N-(4-(trifluoromethoxy)phenyl)nicotinamide] |  | IC50 (Ba/F3-BCR-ABL1-WT cells; 48 h): 29 nM
8 |  | 8.7 | O=C(Nc1ccc(OC(F)(F)F)cc1)c1cncc(-c2cccnc2)c1 [Example 74, N-(4-(Trifluoromethoxy)phenyl)-[3,3′-bipyridine]-5-carboxamide] | 30 | Mean brain (drug concentration in brain) [3]: 8509 pmol/g; Kp at 5 min [3]: 3.29; concentration at 5 min [3]: 2580 nM
9 |  | 8.7 | COc1ccc(C(=O)Nc2ccc(OC(F)(F)F)cc2)cc1-c1ccncc1 [Example 33, 4-methoxy-3-(pyridin-4-yl)-N-(4-(trifluoromethoxy)phenyl)benzamide] |  | 
10 |  | 22 | O=C(Nc1ccc(OC(F)(F)F)c(F)c1)c1cccc(-c2cncnc2)c1 [Example 9, N-(3-Fluoro-4-(trifluoromethoxy)phenyl)-3-(pyrimidin-5-yl)benzamide] | 89 | 
11 | 31.5 | 3.5 | Nc1ncc(-c2cncc(C(=O)Nc3ccc(OC(F)(F)F)cc3)c2)cn1 [Example 61, 5-(2-Aminopyrimidin-5-yl)-N-(4-(trifluoromethoxy)phenyl)nicotinamide] |  | 
12 |  | < 3 | CC(C)CN1CCN(CCOc2ccc(C(=O)Nc3ccc(OC(F)(F)F)cc3)cc2-c2cncnc2)CC1 [Example 39, 4-(2-(4-Isobutylpiperazin-1-yl)ethoxy)-3-(pyrimidin-5-yl)-N-(4-(trifluoromethoxy)phenyl)benzamide] |  | 
13 |  | 3.2 | O=C(Nc1ccc(OC(F)(F)F)cc1)c1ccc(F)c(-c2cncnc2)c1 [Example 18, 4-fluoro-3-(pyrimidin-5-yl)-N-(4-(trifluoromethoxy)phenyl)benzamide] |  | 
14 |  | 6.5 | O=C(Nc1ccc(OC(F)(F)F)cc1)c1cccc(-c2cnc(OCCO)nc2)c1 [Example 2, 3-(2-(2-Hydroxyethoxy)pyrimidin-5-yl)-N-(4-(trifluoromethoxy)phenyl)benzamide] |  | 
15 |  | 13 | O=C(Nc1ccc(OC(F)(F)F)cc1)c1ccc(O)c(-c2cncnc2)c1 [Example 41, 4-Hydroxy-3-(pyrimidin-5-yl)-N-(4-(trifluoromethoxy)phenyl)benzamide] |  | 
16 | 22 | 8.9 | O=C(Nc1ccc(OC(F)(F)F)cc1)c1cnc(OC2CCOCC2)c(-c2cncnc2)c1 [Example 53, 5-(Pyrimidin-5-yl)-6-((tetrahydro-2h-pyran-4-yl)oxy)-N-(4-(trifluoromethoxy)phenyl)nicotinamide] |  | 
17 |  | 8.1 | COc1ncc(-c2cc(C(=O)Nc3ccc(OC(F)(F)F)cc3)ccc2Cl)cn1 [Example 25, 4-chloro-3-(2-methoxypyrimidin-5-yl)-N-(4-(trifluoromethoxy)phenyl)benzamide] |  | 
18 |  | 650 | O=C(Nc1ccc(OC(F)(F)F)cc1)c1cc(-c2cncnc2)ccn1 [Example 72, 4-(pyrimidin-5-yl)-N-(4-(trifluoromethoxy)phenyl)picolinamide] |  | 
19 |  | 3.2 | COc1ccc(C(=O)Nc2ccc(OC(F)(F)F)cc2)cc1-c1cccnc1 [Example 31, 4-methoxy-3-(pyridin-3-yl)-N-(4-(trifluoromethoxy)phenyl)benzamide] |  | 
20 |  | 3.3 | COC(=O)c1cc(-c2cccc(C(=O)Nc3ccc(OC(F)(F)F)cc3)c2)cs1 [Example 6, Methyl 4-(3-((4-(trifluoromethoxy)phenyl)carbamoyl)phenyl)thiophene-2-carboxylate] | 1060 | 
21 |  | 9.9 | COc1ccc(C(=O)Nc2ccc(OC(F)(F)F)cc2)cc1-c1ccc2c(c1)OCO2 [Example 35, 3-(Benzo[d][1,3]dioxol-5-yl)-4-methoxy-N-(4-(trifluoromethoxy)phenyl)benzamide] |  | 
22 | 200 | 114 | O=C(Nc1ccc(OC(F)(F)F)cc1)c1cncc(-c2cnn(CCO)c2)c1 [Example 64, 5-(1-(2-Hydroxyethyl)-1H-pyrazol-4-yl)-N-(4-(trifluoromethoxy)phenyl)nicotinamide] |  | 
23 |  | 12 | COc1ncc(-c2cc(C(=O)Nc3ccc(OC(F)(F)F)cc3)ccc2F)cn1 [Example 19, 4-fluoro-3-(2-methoxypyrimidin-5-yl)-N-(4-(trifluoromethoxy)phenyl)benzamide] |  | 
24 |  | 3.4 | COc1ccc(C(=O)Nc2ccc(OC(F)(F)F)cc2)cc1-c1ccc(C(C)=O)s1 [Example 36, 3-(5-Acetylthiophen-2-yl)-4-methoxy-N-(4-(trifluoromethoxy)phenyl)benzamide] |  | 
25 |  | < 3 | COc1ncc(C(=O)Nc2ccc(OC(F)(F)F)cc2)cc1-c1cncnc1 [Example 49, 6-Methoxy-5-(pyrimidin-5-yl)-N-(4-(trifluoromethoxy)phenyl)nicotinamide] | 47 | 
26 |  | 31 | O=C(Nc1ccc(OC(F)(F)F)cc1)c1ccc(Cl)c(-c2ccncc2)c1 [Example 27, 4-chloro-3-(pyridin-4-yl)-N-(4-(trifluoromethoxy)phenyl)benzamide] |  | 

Row | Compound | IC50 (ABL1 (64-515) [1]) [nM] | IC50 (ABL1 (64-515) [2]) [nM] | IC50 (Ba/F3-BCR-ABL1-WT cells; 48 hours) [nM] | further results
27 | O=C(Nc1ccc(OC(F)(F)F)cc1)c1cnc(Cl)c(-c2cccnc2)c1 [Example 79, 2-Chloro-N-(4-(trifluoromethoxy)phenyl)-[3,3′-bipyridine]-5-carboxamide] | 10 |  | 6 | 
28 | Cc1ncc(C(=O)Nc2ccc(OC(F)(F)F)cc2)cc1-c1cncnc1 [Example 43, 6-Methyl-5-(pyrimidin-5-yl)-N-(4-(trifluoromethoxy)phenyl)nicotinamide] | 2.3 | 3 | 10 | 
29 | Cc1ccc(C(=O)Nc2ccc(OC(F)(F)F)cc2)cc1-c1cncs1 [Example 17, 4-Methyl-3-(thiazol-5-yl)-N-(4-(trifluoromethoxy)phenyl)benzamide] |  | 3 | 27 | Mean brain (drug concentration in brain) [3]: 6985 pmol/g; Kp at 5 min [3]: 2.3; concentration at 5 min [3]: 3030 nM
30 | COc1ncc(-c2cc(C(=O)Nc3ccc(OC(F)(F)F)cc3)ccc2C)cn1 [Example 13, 3-(2-Methoxypyrimidin-5-yl)-4-methyl-N-(4-(trifluoromethoxy)phenyl)benzamide] |  | 3 | 4.9 | Mean brain (drug concentration in brain) [3]: 4011 pmol/g; Kp at 5 min [3]: 1.29; concentration at 5 min [3]: 3090 nM
31 | O=C(Nc1ccc(OC(F)(F)F)cc1)c1cccc(-c2cncnc2)n1 [Example 73, 6-(Pyrimidin-5-yl)-N-(4-(trifluoromethoxy)phenyl)picolinamide] | 540 | 684 | 1870 | 
32 | O=C(Nc1ccc(OC(F)(F)F)cc1)c1ccc(F)c(-c2cc[nH]n2)c1 [Example 23, 4-fluoro-3-(1H-pyrazol-3-yl)-N-(4-(trifluoromethoxy)phenyl)benzamide] |  | 31 | 693 | 
33 | O=C(Nc1ccc(OC(F)(F)F)cc1)c1cnc(Cl)c(-c2ncc[nH]2)c1 [Example 65, 6-Chloro-5-(1H-imidazol-2-yl)-N-(4-(trifluoromethoxy)phenyl)nicotinamide] |  | 5 | 184 | 
34 | COc1ccc(C(=O)Nc2ccc(OC(F)(F)F)cc2)cc1-c1cc[nH]n1 [Example 34, 4-methoxy-3-(1H-pyrazol-3-yl)-N-(4-(trifluoromethoxy)phenyl)benzamide] |  | 13 | 77 | 
35 | Cc1ccc(C(=O)Nc2ccc(OC(F)(F)F)cc2)cc1-c1cccnc1 [Example 15, 4-Methyl-3-(pyridin-3-yl)-N-(4-(trifluoromethoxy)phenyl)benzamide] |  | 4 | 11 | Mean brain (drug concentration in brain) [3]: 6847 pmol/g; Kp at 5 min [3]: 3.2; concentration at 5 min [3]: 2140 nM
36 | O=C(Nc1ccc(OC(F)(F)F)cc1)c1cnc(Cl)c(-c2cncc(F)c2)c1 [Example 77, 2-Chloro-5′-fluoro-N-(4-(trifluoromethoxy)phenyl)-[3,3′-bipyridine]-5-carboxamide] | 4.9 |  | 13 | 

— patent US9315489B2, “Compounds and compositions for inhibiting the activity of ABL1, ABL2 and BCR-ABL1” (Novartis AG, priority 2012, dated 2016)
